Measured values taken from patent US10759787B2, “Benzofuran derivative, preparation method thereof and use thereof in medicine” (Jiangsu Hengrui Medicine Co., Ltd., priority 2015, dated 2020).

Legend:
Pfeiffer cells = assay: In vitro anti-tumor cell growth assay (CellTiter-Glo), Pfeiffer; assay type: cell-based; conditions: Homo sapiens, 120 h; Pfeiffer cells (A677G mutant), 5 days; read-out: IC50 for inhibiting the growth activity of tumor cells (Pfeiffer) in vitro
Protocol: Test Example 2. Assay for Determining In Vitro Anti-Tumor Cell Growth Activity of the Example Compounds of the Present Invention
This method was used to determinate the inhibitory effect of the compounds of the present invention on the growth activity of tumor cells (Pfeiffer or WSU-DLCL2) in vitro. Pfeiffer cells carry A677G mutant, and WSU-DLCL2 cells carry Y641F mutant.
The lymphoma suspension cell line (Pfeiffer or WSU-DLCL2) was cultured in a RPMI-1640 medium containing 10% inactivated Fetal Bovine Serum, 100 U/mL penicillin, and 100 μg/mL streptomycin, and incubated in an incubator with 5% carbon dioxide at 37° C. under a saturated humidity condition, and passaged every 3-4 days.
A cell sudpension was prepared with a fresh cell medium, added to a 96-well cell culture plate at 8000 cells/well (Pfeiffer) or 2000 cells/well (WSU-DLCL2), and incubated in 5% carbon dioxide at 37° C. incubator overnight. On the day of the experiment, the EZH2 test compounds (final concentration: 20000, 2000, 200, 20, 2, 0.2 nM) were added into the experimental wells for 3 parallel wells per group. A control well with the medium alone but without cells was set up to obtain the background luminescent value. The cell culture plate was incubated in an incubator with 5% carbon dioxide at 37° C. for 5 days.
After the compounds were applied to the cells for 5 days, the cell culture plate was placed at room temperature for 30 minutes, then a CellTiter-Glo reagent equal to the volume of cell culture medium was added to each well. The contents were mixed on a shaker for 10 minutes, and the […] signal values were recorded. The cell growth inhibition rate was calculated, and the formula was: cell growth inhibiton rate=[(negative control control−experimental group)/(negative control group−background luminescent value)]×100%. The IC50 values (half inhibition rate IC50, i.e., a drug concentration that is required for 50% cell growth inhibition rate) were calculated by software from the cell growth inhibiton rate and the corresponding concentration.

EZH2-A677G = EZH2-A677G (Homo sapiens (Human), UniProt Q15910, A677G); assay: EZH2-A677G mutant enzyme activity assay (HTRF); assay type: biochemical; conditions: read-out: IC50 for inhibiting the activity of enzyme EZH2-A677G
Chain of EZH2-A677G (Q15910 whole entry A677G): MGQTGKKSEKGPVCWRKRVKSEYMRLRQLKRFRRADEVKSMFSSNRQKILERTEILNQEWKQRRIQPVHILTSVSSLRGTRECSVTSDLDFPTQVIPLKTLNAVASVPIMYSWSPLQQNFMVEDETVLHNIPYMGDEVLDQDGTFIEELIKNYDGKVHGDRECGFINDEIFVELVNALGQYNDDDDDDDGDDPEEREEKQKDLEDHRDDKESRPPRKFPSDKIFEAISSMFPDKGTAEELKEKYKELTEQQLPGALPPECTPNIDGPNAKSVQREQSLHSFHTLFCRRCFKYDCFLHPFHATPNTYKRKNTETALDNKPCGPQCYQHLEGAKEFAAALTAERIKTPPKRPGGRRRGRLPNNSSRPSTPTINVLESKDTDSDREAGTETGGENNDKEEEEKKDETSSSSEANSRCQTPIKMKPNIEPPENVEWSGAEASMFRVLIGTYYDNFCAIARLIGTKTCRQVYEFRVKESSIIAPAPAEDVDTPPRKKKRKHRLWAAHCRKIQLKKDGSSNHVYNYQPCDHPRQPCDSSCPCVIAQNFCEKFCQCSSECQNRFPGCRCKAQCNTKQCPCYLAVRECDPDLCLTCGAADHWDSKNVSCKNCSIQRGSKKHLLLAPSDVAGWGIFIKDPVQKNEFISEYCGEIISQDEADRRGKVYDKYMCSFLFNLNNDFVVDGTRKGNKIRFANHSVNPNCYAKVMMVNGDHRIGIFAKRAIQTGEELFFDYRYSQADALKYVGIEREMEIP
Chain of EZH2-A677G (O75530 whole entry partner): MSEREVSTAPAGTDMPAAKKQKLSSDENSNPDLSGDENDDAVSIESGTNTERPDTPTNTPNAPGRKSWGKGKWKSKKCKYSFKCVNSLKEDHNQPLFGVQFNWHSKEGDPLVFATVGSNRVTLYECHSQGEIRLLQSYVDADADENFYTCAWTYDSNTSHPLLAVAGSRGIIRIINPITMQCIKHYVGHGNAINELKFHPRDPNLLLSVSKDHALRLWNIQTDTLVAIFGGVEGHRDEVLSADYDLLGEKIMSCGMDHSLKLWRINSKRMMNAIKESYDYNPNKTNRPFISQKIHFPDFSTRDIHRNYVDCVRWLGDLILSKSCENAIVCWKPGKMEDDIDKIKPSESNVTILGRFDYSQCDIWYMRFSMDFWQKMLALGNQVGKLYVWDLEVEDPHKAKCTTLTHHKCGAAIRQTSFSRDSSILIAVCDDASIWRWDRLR
Chain of EZH2-A677G (Q15022 whole entry partner): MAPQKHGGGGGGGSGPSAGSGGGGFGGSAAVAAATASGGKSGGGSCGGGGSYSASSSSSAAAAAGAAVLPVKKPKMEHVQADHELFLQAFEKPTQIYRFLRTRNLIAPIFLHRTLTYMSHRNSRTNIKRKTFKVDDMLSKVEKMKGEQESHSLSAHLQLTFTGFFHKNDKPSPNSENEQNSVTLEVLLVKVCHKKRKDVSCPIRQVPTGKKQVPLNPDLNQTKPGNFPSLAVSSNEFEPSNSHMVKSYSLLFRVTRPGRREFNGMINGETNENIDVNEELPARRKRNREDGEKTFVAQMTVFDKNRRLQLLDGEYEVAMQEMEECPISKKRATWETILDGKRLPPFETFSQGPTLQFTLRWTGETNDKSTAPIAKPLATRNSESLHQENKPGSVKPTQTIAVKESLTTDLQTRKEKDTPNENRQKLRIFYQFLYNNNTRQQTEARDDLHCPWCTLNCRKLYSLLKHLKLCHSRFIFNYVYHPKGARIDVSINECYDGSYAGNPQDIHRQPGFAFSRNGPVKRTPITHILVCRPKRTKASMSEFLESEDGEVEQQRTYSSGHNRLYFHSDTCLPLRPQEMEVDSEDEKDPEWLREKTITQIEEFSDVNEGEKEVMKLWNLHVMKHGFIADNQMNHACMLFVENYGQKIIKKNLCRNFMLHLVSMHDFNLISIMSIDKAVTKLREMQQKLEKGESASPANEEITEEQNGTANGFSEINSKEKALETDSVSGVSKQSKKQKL
Chain of EZH2-A677G (Q09028 whole entry partner): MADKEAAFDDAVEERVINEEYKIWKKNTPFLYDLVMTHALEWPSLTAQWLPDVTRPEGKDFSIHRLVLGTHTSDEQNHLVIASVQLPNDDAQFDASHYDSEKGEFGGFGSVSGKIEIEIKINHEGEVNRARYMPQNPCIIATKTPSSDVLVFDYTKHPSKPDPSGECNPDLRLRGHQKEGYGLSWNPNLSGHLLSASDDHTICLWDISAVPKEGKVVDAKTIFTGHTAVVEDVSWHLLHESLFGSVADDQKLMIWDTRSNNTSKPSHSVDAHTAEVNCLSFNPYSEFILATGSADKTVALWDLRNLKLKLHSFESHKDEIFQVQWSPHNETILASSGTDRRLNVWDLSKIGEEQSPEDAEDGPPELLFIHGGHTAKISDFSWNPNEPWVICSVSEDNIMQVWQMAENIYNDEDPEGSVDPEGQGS
Chain of EZH2-A677G (Q6ZN18 whole entry partner): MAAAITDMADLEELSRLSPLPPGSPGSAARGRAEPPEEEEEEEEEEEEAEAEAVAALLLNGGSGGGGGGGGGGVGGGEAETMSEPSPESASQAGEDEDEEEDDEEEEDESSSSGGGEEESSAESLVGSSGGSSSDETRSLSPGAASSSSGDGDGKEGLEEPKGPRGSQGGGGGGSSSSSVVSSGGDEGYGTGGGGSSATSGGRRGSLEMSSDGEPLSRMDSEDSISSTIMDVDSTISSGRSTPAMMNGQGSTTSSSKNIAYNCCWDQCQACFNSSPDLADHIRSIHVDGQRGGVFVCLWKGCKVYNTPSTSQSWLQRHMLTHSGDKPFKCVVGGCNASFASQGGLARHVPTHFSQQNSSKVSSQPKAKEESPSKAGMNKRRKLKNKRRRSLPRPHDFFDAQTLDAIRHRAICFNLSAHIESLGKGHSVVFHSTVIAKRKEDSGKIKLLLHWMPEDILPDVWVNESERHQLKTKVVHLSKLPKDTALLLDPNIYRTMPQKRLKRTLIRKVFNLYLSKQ
Protocol: Histone H3 biotin labeling and S-adenosyl methionine were respectively diluted to 50 nM and 50 μM with a kinase buffer, then added to a 384-well plate at 4 μl/well. The test compound was diluted with a kinase buffer (it was diluted from the highest concentration 30 μM in 10 fold concentration gradient to 7 concentration points), then added to the 384-well microtiter plate at 4 μl/well. The plate was incubated at room temperature for 2 hours. Histone H3K27 Me3 monoclonal antibody and Streptavidin-XL665 were diluted to 30 nM and 500 nM by HTRF detection buffer, then added to the 384-well microplate at 10 µl/well and incubated for 1 hour. A well without an EZH2 enzyme and a compound was used as a negative control, and a well with an EZH2 enzyme but without a compound was used as a positive control. […] The compound logarithm concentration vs the inhibition percentage relative to the positive control well was plotted using GraphPad Prism, then the IC50 values were calculated.

| Compound | IC50 (Pfeiffer cells) | IC50 (EZH2-A677G) |
| --- | --- | --- |
| CCN(c1cc2oc(CN3CCCCC3)cc2c(C(=O)NCc2c(OC)cc(C)[nH]c2=O)c1C)C1CCOCC1 [Example 4, 6-(Ethyl(tetrahydro-2H-pyran-4-yl)amino)-N-((4-methoxy-6-methyl-2-oxo-1,2-dihydropyridin-3-yl)methyl)-5-methyl-2-(piperidin-1-ylmethyl)benzofuran-4-carboxamide] | 19 nM | 14 nM |
| CCc1c(N(CC)C2CCOCC2)cc2oc(CN3CCC(F)(F)CC3)cc2c1C(=O)NCc1c(OC)cc(C)[nH]c1=O [Example 7, 2-((4,4-Difluoropiperidin-1-yl)methyl)-5-ethyl-6-(ethyl(tetrahydro-2H-pyran-4-yl)amino)-N-((4-methoxy-6-methyl-2-oxo-1,2-dihydropyridin-3-yl)methyl)benzofuran-4-carboxamide] | 11 nM | 3.5 nM |
| CCc1c(N(CC)C2CCOCC2)cc2oc(CN3CCN(CC(C)(C)O)CC3)cc2c1C(=O)NCc1c(C)cc(C)[nH]c1=O [Example 11, N-((4,6-Dimethyl-2-oxo-1,2-dihydropyridin-3-yl)methyl)-5-ethyl-6-(ethyl(tetrahydro-2H-pyran-4-yl)amino)-2-((4-(2-hydroxy-2-methylpropyl)piperazin-1-yl)methyl)benzofuran-4-carboxamide] | 22 nM | 5.6 nM |
| CCN(c1cc2oc(C3CCN(C)CC3)cc2c(C(=O)NCc2c(C)cc(C)[nH]c2=O)c1C)C1CCOCC1 [Example 15, N-((4,6-Dimethyl-2-oxo-1,2-dihydropyridin-3-yl)methyl)-6-(ethyl(tetrahydro-2H-pyran-4-yl)amino)-5-methyl-2-(1-methylpiperidin-4-yl)benzofuran-4-carboxamide] | 13 nM | 16 nM |
| CCN(c1cc2oc(C3=CCN(C)CC3)cc2c(C(=O)NCc2c(C)cc(C)[nH]c2=O)c1C)C1CCOCC1 [Example 16, N-((4,6-Dimethyl-2-oxo-1,2-dihydropyridin-3-yl)methyl)-6-(ethyl(tetrahydro-2H-pyran-4-yl)amino)-5-methyl-2-(1-methyl-1,2,3,6-tetrahydropyridin-4-yl)benzofuran-4-carboxamide] | 18 nM | 31 nM |
| CCN(c1cc2occc2c(C(=O)NCc2c(OC)cc(C)[nH]c2=O)c1Cl)C1CCOCC1 [Example 22, 5-Chloro-6-(ethyl(tetrahydro-2H-pyran-4-yl)amino)-N-((4-methoxy-6-methyl-2-oxo-1,2-dihydropyridin-3-yl)methyl)benzofuran-4-carboxamide] |  | 6.5 nM |
| CCN(c1cc2oc(C(F)(F)F)cc2c(C(=O)NCc2c(OC)cc(C)[nH]c2=O)c1C)C1CCOCC1 [Example 29, 6-(Ethyl(tetrahydro-2H-pyran-4-yl)amino)-N-((4-methoxy-6-methyl-2-oxo-1,2-dihydropyridin-3-yl)methyl)-5-methyl-2-(trifluoromethyl)benzofuran-4-carboxamide] | 17 nM | 2.7 nM |
| CCc1c(N(CC2CC2)C2CCN(CC(F)(F)F)CC2)cc2occc2c1C(=O)NCc1c(OC)cc(C)[nH]c1=O [Example 34, 6-((Cyclopropylmethyl)(1-(2,2,2-trifluoroethyl)piperidin-4-yl)amino)-5-ethyl-N-((4-methoxy-6-methyl-2-oxo-1,2-dihydropyridin-3-yl)methyl)benzofuran-4-carboxamide] |  | 14 nM |

Further lines, results first:

| IC50 (Pfeiffer cells) | IC50 (EZH2-A677G) | Compound |
| --- | --- | --- |
| 19 nM | 1.2 nM | CCc1c(N(CC)C2CCOCC2)cc2oc(CN3CCN(C(C)C)CC3)cc2c1C(=O)NCc1c(OC)cc(C)[nH]c1=O [Example 5, 5-Ethyl-6-(ethyl(tetrahydro-2H-pyran-4-yl)amino)-2-((4-isopropylpiperazin-1-yl)methyl)-N-((4-methoxy-6-methyl-2-oxo-1,2-dihydropyridin-3-yl)methyl)benzofuran-4-carboxamide] |
| 3 nM | 7.8 nM | CCc1c(N(CC)C2CCOCC2)cc2oc(CN3CCOCC3)cc2c1C(=O)NCc1c(OC)cc(C)[nH]c1=O [Example 6, 5-Ethyl-6-(ethyl(tetrahydro-2H-pyran-4-yl)amino)-N-((4-methoxy-6-methyl-2-oxo-1,2-dihydropyridin-3-yl)methyl)-2-(morpholinomethyl)benzofuran-4-carboxamide] |
| 12 nM | 6.2 nM | CCc1c(N(CC)C2CCOCC2)cc2oc(CN3CCCC3)cc2c1C(=O)NCc1c(OC)cc(C)[nH]c1=O [Example 8, 5-Ethyl-6-(ethyl(tetrahydro-2H-pyran-4-yl)amino)-N-((4-methoxy-6-methyl-2-oxo-1,2-dihydropyridin-3-yl)methyl)-2-(pyrrolidin-1-ylmethyl)benzofuran-4-carboxamide] |
| 5 nM | 1.7 nM | CCc1c(N(CC)C2CCOCC2)cc2oc(C3CCN(C(C)C)CC3)cc2c1C(=O)NCc1c(OC)cc(C)[nH]c1=O [Example 10, 5-Ethyl-6-(ethyl(tetrahydro-2H-pyran-4-yl)amino)-2-(1-isopropylpiperidin-4-yl)-N-((4-methoxy-6-methyl-2-oxo-1,2-dihydropyridin-3-yl)methyl)benzofuran-4-carboxamide] |
| 22 nM | 10 nM | CCc1c(N(CC)C2CCOCC2)cc2oc(CN3CCN(C)CC3)cc2c1C(=O)NCc1c(OC)cc(C)[nH]c1=O [Example 12, 5-Ethyl-6-(ethyl(tetrahydro-2H-pyran-4-yl)amino)-N-((4-methoxy-6-methyl-2-oxo-1,2-dihydropyridin-3-yl)methyl)-2-((4-methylpiperazin-1-yl)methyl)benzofuran-4-carboxamide] |
| 9 nM | 2.9 nM | CCc1c(N(CC)C2CCOCC2)cc2oc(CN(C)C)cc2c1C(=O)NCc1c(OC)cc(C)[nH]c1=O [Example 13, 2-((Dimethylamino)methyl)-5-ethyl-6-(ethyl(tetrahydro-2H-pyran-4-yl)amino)-N-((4-methoxy-6-methyl-2-oxo-1,2-dihydropyridin-3-yl)methyl)benzofuran-4-carboxamide] |
|  | 9.6 nM | CCc1c(N(CC)C2CCOCC2)cc2oc(C3CCCC3)cc2c1C(=O)NCc1c(C)cc(C)[nH]c1=O [Example 14, 2-Cyclopentyl-N-((4,6-dimethyl-2-oxo-1,2-dihydropyridin-3-yl)methyl)-5-ethyl-6-(ethyl(tetrahydro-2H-pyran-4-yl)amino)benzofuran-4-carboxamide] |
| 9 nM | 9.9 nM | CCc1c(N(CC)C2CCOCC2)cc2oc(C3CCN(C)CC3)cc2c1C(=O)NCc1c(OC)cc(C)[nH]c1=O [Example 17, 5-Ethyl-6-(ethyl(tetrahydro-2H-pyran-4-yl)amino)-N-((4-methoxy-6-methyl-2-oxo-1,2-dihydropyridin-3-yl)methyl)-2-(1-methylpiperidin-4-yl)benzofuran-4-carboxamide] |
| 4 nM | 3.5 nM | CCc1c(N(CC)C2CCOCC2)cc2oc(F)cc2c1C(=O)NCc1c(OC)cc(C)[nH]c1=O [Example 27, 5-Ethyl-6-(ethyl(tetrahydro-2H-pyran-4-yl)amino)-2-fluoro-N-((4-methoxy-6-methyl-2-oxo-1,2-dihydropyridin-3-yl)methyl)benzofuran-4-carboxamide] |
| 78 nM | 6.8 nM | CCc1c(N(CC2CC2)C2CCOCC2)cc2oc(C3CC3)cc2c1C(=O)NCc1c(OC)cc(C)[nH]c1=O [Example 28, 2-Cyclopropyl-6-((cyclopropylmethyl)(tetrahydro-2H-pyran-4-yl)amino)-5-ethyl-N-((4-methoxy-6-methyl-2-oxo-1,2-dihydropyridin-3-yl)methyl)benzofuran-4-carboxamide] |
